Laboratory results reported in US20020174455A1, “Sustained totipotent culture of selected monocot genera” (priority 2001, published 2002).

Legend:
A. donax explants = assay: Phosphinothricin selection of explants with or without Agrobacterium tumefaciens cocultivation (Example 3); assay type: cell-based, Arundo donax L.; conditions: 10 mg/l
Experimental: Cross-sectional segment of immature A. donax inflorescence were prepared and cultivated as described in Example 2. The totipotent tissue was cocultivated with Agrobacterium tumefaciens carrying plasmid pMSF3022, which carried the bar gene for positive selection in plant cells. The gene confers resistance to the antibiotic/herbicide phosphinothricin.
Cocultivation was carried out in 6 ml. of liquid primary culture medium for four days in the dark at room temperature. Explants were then rinsed with liquid medium and placed on solid selective and non-selective control medium containing the antibiotic/herbicide phosphinothricine at 10 mg/l. All medium contained tidarcillin at 400 mg/l to eliminate residual A. tumefaciens. Controls includes explants incubated without A. tumefaciens. […] This can be contrasted with control explants (which were not contacted with A. tumefaciens) that were killed by 10 mg/l of phosphinothricin (FIG. 3A). Also shown are control explants that have developed callus in the absence of phosphinothricin (FIG. 3B), and cocultivated explants that have developed callus in the absence of phosphinothricin (FIG. 3D).

[1] = system: cloned A. donax plants (roots); assay: Trichloroethene challenge of cloned plants in phytoreactor (Example 4); assay type: in vivo, Arundo donax L.; conditions: 0.25 mM in hydroponic solution; after a recovery period of 3 to 4 weeks
Experimental: Sustained titopotent cultures of A donax were grown as described in Example 2, and cloned plants derived from the titopotent tissues were established in a standard liquid hydroponic solution in plastic tubs (Shown in FIG. 4 A). In one phytoreactor tub, trichloroethene (trichloroethylene) was added to a concentration of 0.25 mM. This was believed to be a high concentration of the organic material, because the allowable EPA concentration is 0.005 mg/l.

Row | SMILES | effect on control explants (not contacted with A. tumefaciens) (A. donax explants) | state of roots of challenged plants [1]
1 | CP(=O)(O)CC[C@H](N)C(=O)O [phosphinothricin] | killed | 
2 | ClC=C(Cl)Cl [trichloroethene] |  | fully recovered
